Data as given in US6617338B2, “Orally administrable acid stable antiulcer benzimidazole derivatives” (priority 2000, dated 2003).

Tested on: pylorus ligated rats
Assay: Pylorus ligated rats: total acid output and ulcer index
Type: in vivo, Wistar albino rats
Conditions: 0.4 mg/kg × 1 day p.o., mean ± SEM
Excerpt: The distribution of animals in groups, the sequence of trials and the treatment allotted to each group were randomized. Gastric ulceration was produced by pylorus ligation and absolute ethanol administration. In these methods, animals were fasted for 36 hrs before the experiment. Coprohagy was prevented by fasting the animals in cages with grating as the floor. […] The animals were sacrificed using anaesthetic ether after the completion of experiments; the stomachs were removed, opened along the greater curvature, washed with saline and examined with 6.4* (cm diameter) binocular magnifier. Lesions were assessed by two observers unaware of the experimental protocol. […] They were administered per orally, 30 minutes after the drug treatment the animals were subjected to any ulcerogenic procedure. Rats were anesthetized with anaesthetic ether and the portion of abdomen was opened by a small midline incision below the xiphoid process. Pylorus portion of the stomach was lifted and ligated. […] The stomach was isolated from the body and its contents were collected, measured and centrifuged. […] Immediately after the removal of the contents from the stomach, they were examined for lesions in the stomach portion which were measured and expressed in terms of ulcer index calculated as the total ulcerated area divided by the total mucosal area.

5-methoxy-2[(4-methoxy-3,5-dimethyl-2-pyridinyl)sulfinyl]-1H-benzimidazole [Omeprazole]
Total acid output (pylorus ligation 19 hours): 72.93 ± 7.17 meq/L/100 g
Ulcer index (total ulcerated area divided by total mucosal area): 0.88 ± 0.10
